Test results published in paper PMC10483525, “Synthesis, Structural Investigations, DNA/BSA Interactions, Molecular Docking Studies, and Anticancer Activity of a New 1,4-Disubstituted 1,2,3-Triazole Derivative” (ACS Omega, 2023).

Tests used:
[1] = target: T1, BSA (bovine serum albumin) (Bos taurus, UniProt P02769); assay: BSA UV–vis absorption; format: binding; conditions: BSA 10 μM + compound 10 μM
T1 construct: purchased Merck/Sigma
Experimental: The BSA–compound interactions are studied by comparing the UV–vis spectra (200–400 nm) of BSA (10 μM) alone and a mixture of [BSA (10 μM) + compound 3 (10 μM)] at room temperature in 10 mM Tris-HCl buffer with a pH of 7.4.[85]

Caco-2 cells = assay: MMP determination (TMRE, flow cytometry); format: cell-based, human; conditions: Caco-2, 48 h, 7.5, 15, 30 μM
Experimental: Briefly, Caco-2 (5x10^5 per well) were seeded in 6-well plates for 24 h and either untreated or treated with a various concentrations of compound 3 (7.5, 15, 30 μM) for addional 48 h.
Following treatment, cells were harvested and were incubated with 50 nM BD PharmingenTM MitoStatus TMRE for 30 min at 37°C, 5% CO2, followed by resuspending twice with pre-warmed PBS (2000 rpm×3 min). Quantitative changes in mitochondrial membrane potential (MMP) at the early stage of cell apoptosis were measured using BD PharmingenTM MitoStatus TMRE (BD Biosciences, San Jose, CA, USA) and detected by flow cytometry (BD

[2] = target: T1, BSA (bovine serum albumin); assay: BSA fluorescence quenching; format: binding; conditions: for Kq (bimolecular quenching constant): Ksv = kqτ0, τ0 10 ns; for ΔG: van't Hoff equation from Kbin, BSA binding
Experimental: BSA fluorescence spectral studies of the compound and related calculations were the same as those performed for the [CT-DNA + EB] quenching method described in Section 4.5. Detailed experimental procedures and the calculations of the binding data are given in the SI. […]
The quenching efficiency of the compound was analysed using the Stern-Volmer equation.
Io/I = 1 + K sv[Q] = 1 + k qτ0[Q] […]
where I o and I are the emission intensities of CT-DNA+EB complex in the absence and each […]
addition of compound, respectively and [Q] is the concentration of quencher. The Stern-Volmer […]
(quenching) constant, K sv was determined from the slope of the linear plot of I o/I versus [Q].
To have an insight into the kinetics of the competitive binding process, the bimolecular […]
quenching rate constant, k q values were also computed using the Stern-Volmer equation. […]
where n is the number of binding sites per nucleotide. 8
Fluorescence Spectral Studies
Quenching of fluorescence emission of BSA by compound was performed in order to determine […]
its binding constant. Stock concentration of BSA (5 μM) was prepared in 10 mM Tris- HCl […]
buffer at pH = 7.4. The emission spectra of 5 μM BSA solutions in the absence and presence of […]
compound of concentration ranging from 0 to 8 μM were acquired at room temperature. The […]
emission changes were recorded in the λ em range of 300 to 450 nm, with the excitation wavelength set at 280 nm. Each spectrum was recorded after an incubation time of 10 minutes.
The quenching efficiency of the compound was calculated using the Stern-Volmer equation as discussed above. The Stern-Volmer (quenching) constant, K sv was determined from the slope of the linear plot of I o/I versus [Q]. To have an insight into the kinetics of the competitive binding process, the bimolecular quenching rate constant, k q values were also computed using the same Stern Volmer equation, where τ 0 is the average fluorescence lifetime of the BSA alone is 10 nanoseconds. 9 Scatchard plots also gave the binding constant K bin as determined from the fluorescence titration using Scatchard equation. 10 The standard Gibbs free (ΔG) of compound

T1 sequence (P02769 25-607): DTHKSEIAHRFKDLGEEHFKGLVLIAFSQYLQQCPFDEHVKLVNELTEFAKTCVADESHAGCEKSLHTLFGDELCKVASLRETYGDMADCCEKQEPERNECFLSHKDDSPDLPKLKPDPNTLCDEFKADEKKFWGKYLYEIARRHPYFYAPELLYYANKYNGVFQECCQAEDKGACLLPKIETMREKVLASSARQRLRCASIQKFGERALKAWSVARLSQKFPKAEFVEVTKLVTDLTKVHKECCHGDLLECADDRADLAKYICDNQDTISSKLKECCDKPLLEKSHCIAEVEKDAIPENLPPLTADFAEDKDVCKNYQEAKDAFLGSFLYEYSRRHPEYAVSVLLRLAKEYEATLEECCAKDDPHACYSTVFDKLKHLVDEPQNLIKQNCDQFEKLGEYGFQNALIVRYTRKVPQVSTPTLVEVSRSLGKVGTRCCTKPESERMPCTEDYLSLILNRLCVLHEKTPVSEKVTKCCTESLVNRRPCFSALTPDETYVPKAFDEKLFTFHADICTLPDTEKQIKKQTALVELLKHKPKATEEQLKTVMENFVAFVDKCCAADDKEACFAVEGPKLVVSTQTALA

## O=Cc1ccc(OCc2cn(-c3ccc(Cl)c(Cl)c3)nn2)cc1O [Compound 3, 4-((1-(3,4-Dichlorophenyl)-1H-1,2,3-triazol-4-yl)methoxy)-2-hydroxybenzaldehyde]
[1]
  Δλ (blue shift of BSA absorption): ~1 nm
Caco-2 cells
  loss of mitochondrial membrane potential (MMP): significant increase in MMP loss
[2]; BSA 5 μM, compound 0 to 8 μM
  quenching of BSA fluorescence intensity at ∼345 nm: 69.12%
  red shift of BSA emission: 5 nm
[2]; BSA 5 μM, compound 0–8 μM, λex 280 nm
  Ksv (Stern–Volmer quenching constant): 1.99 × 10^5 M^–1
[2]; BSA
  Kq (bimolecular quenching constant): 1.99 × 10^13 M^–1·s^–1
[2]; BSA, listed as compound 3
  Kq (bimolecular quenching constant): ~10^13 M^–1·s^–1
[2]; Scatchard equation, BSA
  n (number of binding sites): 0.80
[2]; Scatchard equation, BSA 5 μM, read-out: Kbin (binding constant) (converted)
  Kd: 45.9 µM
[2]
  ΔG: –24.75 kJ·mol^–1
[2]; listed as compound 3
  ΔG: −24.75 kJ·mol^–1
